According to ChEMBL document CHEMBL3886557, “Compounds as inhibitors of diacylglycerol O-acyltransferase type 1 enzyme” (2016):
pIC50: −log10 of the molar value.

What was measured:
[1] = target: T1, Diacylglycerol O-acyltransferase 1 (Mus musculus, UniProt Q9Z2A7); test: Inhibition Assay: Â Assay buffer [20 mM HEPES (pH 7.4), 100 mM MgCl2 and 0.04% bovine serum albumin (BSA)] containing 500 uM of enzyme substrate (didecanoyl glycerol) and 7.5 uM radiolabeled acyl-CoA substrate ([14C]decanoyl-CoA) was added to each well of a phospholipid-coated radiometric assay plate.; format: microsomes, Liver
T1 sequence (Q9Z2A7 whole entry): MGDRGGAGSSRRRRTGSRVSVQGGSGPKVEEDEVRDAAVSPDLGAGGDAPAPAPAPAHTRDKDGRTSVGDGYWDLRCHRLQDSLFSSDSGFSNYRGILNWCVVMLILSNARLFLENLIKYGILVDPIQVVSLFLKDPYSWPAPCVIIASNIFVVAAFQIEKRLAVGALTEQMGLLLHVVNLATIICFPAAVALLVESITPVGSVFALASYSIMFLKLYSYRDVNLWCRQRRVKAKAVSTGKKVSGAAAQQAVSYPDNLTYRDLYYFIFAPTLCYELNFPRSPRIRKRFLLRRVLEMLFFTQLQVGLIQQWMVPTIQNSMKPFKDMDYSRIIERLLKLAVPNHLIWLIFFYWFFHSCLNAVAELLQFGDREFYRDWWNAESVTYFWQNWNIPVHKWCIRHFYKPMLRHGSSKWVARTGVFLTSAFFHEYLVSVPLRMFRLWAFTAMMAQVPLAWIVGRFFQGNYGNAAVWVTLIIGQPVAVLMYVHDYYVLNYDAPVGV

[2] = target: T2, Diacylglycerol O-acyltransferase 1 (Homo sapiens, UniProt O75907); format: tissue-based, Liver
T2 sequence (O75907 whole entry): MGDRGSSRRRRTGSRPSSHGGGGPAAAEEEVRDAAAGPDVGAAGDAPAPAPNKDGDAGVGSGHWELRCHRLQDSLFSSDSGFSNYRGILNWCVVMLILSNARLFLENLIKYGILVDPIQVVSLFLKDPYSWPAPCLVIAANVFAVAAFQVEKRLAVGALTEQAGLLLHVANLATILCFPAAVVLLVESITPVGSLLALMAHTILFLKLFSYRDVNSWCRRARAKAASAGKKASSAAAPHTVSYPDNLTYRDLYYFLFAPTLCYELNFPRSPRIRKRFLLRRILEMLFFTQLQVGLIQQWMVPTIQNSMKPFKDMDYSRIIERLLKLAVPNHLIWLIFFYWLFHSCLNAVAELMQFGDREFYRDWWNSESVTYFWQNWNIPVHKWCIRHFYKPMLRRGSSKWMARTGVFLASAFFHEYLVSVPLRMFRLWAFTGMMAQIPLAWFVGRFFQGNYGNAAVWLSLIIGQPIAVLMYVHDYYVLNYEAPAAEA

| Structure (SMILES) | pIC50 [1] | pIC50 [2] |
| --- | --- | --- |
| O=C(O)C[C@H]1CC[C@H](c2ccc(-c3cn4cc(C(=O)Nc5cccc(Cl)c5)nc4s3)cc2)CC1 | > 6.82 | > 8.00 |
| O=C(O)CC1CCC(c2ccc(-c3ccc4nc(C(=O)NCc5c(F)cccc5F)cn4c3)cc2)CC1 (stereo unspecified) | > 7.12 | > 7.60 |
| O=C(O)CC1CCC(c2ccc(-c3ccc4nc(C(=O)NCc5c(F)cccc5Cl)cn4c3)cc2)CC1 (stereo unspecified) | > 7.30 | > 8.00 |
| O=C(O)CC1CCC(c2ccc(-c3ccc4nc(C(=O)NCc5c(Cl)cccc5Cl)cn4c3)cc2)CC1 (stereo unspecified) | > 7.30 | > 8.00 |
| O=C(O)C[C@H]1CC[C@H](c2ccc(-c3cn4cc(C(=O)NCc5ccc(OC(F)(F)F)c(Cl)c5)nc4s3)cc2)CC1 | > 6.70 | > 6.65 |
| O=C(O)CC1CCC(c2ccc(-c3cn4cc(C(=O)Nc5ccc(F)c(Cl)c5)nc4s3)cc2)CC1 (stereo unspecified) | > 7.00 | > 8.00 |

Second part, the compound after the results:

| pIC50 [1] | pIC50 [2] | Structure (SMILES) |
| --- | --- | --- |
| > 7.60 | > 8.00 | O=C(O)C[C@H]1CC[C@H](c2ccc(-c3cn4cc(C(=O)NCc5ccc(F)c(Cl)c5)nc4s3)cc2)CC1 |
| > 8.00 | > 8.00 | O=C(O)C[C@H]1CC[C@H](c2ccc(-c3cn4cc(C(=O)NCc5c(Cl)cccc5Cl)nc4s3)cc2)CC1 |
| > 8.00 | > 8.00 | O=C(O)CC1CCC(c2ccc(-c3ccc4nc(C(=O)NCc5c(Cl)cccc5C(F)(F)F)cn4c3)cc2)CC1 (stereo unspecified) |
| > 7.60 | > 8.00 | O=C(O)C[C@H]1CC[C@H](c2ccc(-c3cn4cc(C(=O)NCc5c(F)cccc5Cl)nc4s3)cc2)CC1 |
| > 8.00 | > 8.00 | O=C(O)C[C@H]1CC[C@H](c2ccc(-c3cn4cc(C(=O)NCc5c(F)cc(Cl)cc5F)nc4s3)cc2)CC1 |
| > 8.00 | > 8.00 | O=C(O)CC1CCC(c2ccc(-c3ccc4nc(C(=O)NC5(c6cc(F)ccc6F)CC5)cn4c3)cc2)CC1 (stereo unspecified) |
| > 7.60 | > 7.60 | O=C(O)C[C@H]1CC[C@H](c2ccc(-c3cn4cc(C(=O)NCc5c(F)cccc5F)nc4s3)cc2)CC1 |
